Results as given in publication PMC11719499 (International Journal of Molecular Sciences, 2024).
Entries after “also recorded” stand apart in the source; their conditions may differ.

How the values were obtained:
[1] = for BBB permeability (in words): PAMPA-BBB; for Prediction of penetration to the CNS: class from logPe in PAMPA-BBB
Method: We used the parallel artificial membrane permeability assay for BBB (PAMPA-BBB) to determine the brain permeability of compounds 1 and 12 [22]. The compounds 1 and 12 were prepared with methyl alcohol at the concentration of 4 mg/mL. These were diluted with PBS (Phosphate Buffer Saline; pH = 7.4) to obtain the donor solutions 100 μg/mL PAMPA “sandwich”, consisting of a donor 96-well microliter plate and matching filter plate coated with 5 μL of 2% lecithin/dodecane. Compounds 1 and 12 were added to the wells (150 μL/well) of the pre-coated filter, and PBS was added to the wells (300 μL/well) of the receiver plate. The filter plate was coupled with the receiver plate, and the plate couple was incubated in the thermostat at 37 °C for 16 h. After incubation, the plates were separated, and the samples from each well of both the filter plate and the receiver plate were sucked out and analyzed by HPLC.

[2] = tested on: HM mCherry-GFP-LC3 cells; assay: Autophagic flux assay by flow cytometry in HM mCherry-GFP-LC3 cells; assay type: cell-based, human; settings: compounds at 10 µM and 40 µM, 24 h, compared to control
Method: Consequently, the autolysosomes manifest red fluorescence. Consequently, the red fluorescence observed in the cells can be used as a marker for the formation of autolysosomes. The extent of red fluorescence can be used as an indicator of the efficiency of the flux from the autophagosome to the autolysosome. The bioactivity of all compounds on autophagic flux was evaluated using HM mCherry-GFP-LC3 cells by flow cytometry. In summary, the HM mCherryGFP-LC3 cells were cultured in 12-well plates for 24 h in DMEM (Dulbecco’s modified Eagle medium) supplemented with 10% fetal bovine serum (Gibco-BRL, 10099–141, Gaithersburg, MD, USA) in a 37 ◦C incubator with 5% CO2 at 95% humidity. Subsequently, the compounds were introduced directly to the culture medium, resulting in final concentrations of 10 µM and 40 µM. Rapamycin was used as a positive control. Twenty-four hours following the administration of the treatment, the cells were harvested and fixed using 4% paraformaldehyde (PFA). […] The data were analyzed using the FlowJo software v10 (BD Biosciences, Franklin Lakes, NJ, USA).
Data analyses were carried out by using GraphPad Prism 8 (GraphPad Software, Inc., La Jolla, CA, USA). The one-way ANOVA (analysis of variance) was performed using Dunnett’s post hoc test for comparison between the treated group and control group, and the values were expressed as mean ± standard deviation (SD). […]

| Structure (SMILES) | BBB permeability (in words) [1] | Prediction of penetration to the CNS [1] | bioactivity towards autophagic flux [2] |
| --- | --- | --- | --- |
| C=C1[C@H](OC(=O)/C(C)=C/C)[C@@H](OC(C)=O)[C@@H](OC(C)=O)C(C)(C)/C=C/[C@H](C)[C@@H](OC(C)=O)[C@@]2(O)C[C@@](C)(OC(C)=O)[C@H](OC(=O)c3ccccc3)[C@@H]2[C@H]1OC(C)=O [Compound 12, euphpepluone F] | relatively high BBB permeability; also recorded: ability to penetrate the blood–brain barrier (BBB) | CNS + (+ is logPe > −6.0) | most promising activity; also recorded: significant activity on autophagic flux |
| NC(=O)N1c2ccccc2C=Cc2ccccc21 [Carbamazepine, carbamazepine, reference compound] | – | CNS ++ (++ is logPe > −5.0) | – |
| C=C1C(OC(=O)C(C)C)C(O)C(OC(=O)c2ccccc2)C(C)(C)C=CC(C)C(OC(C)=O)C2(O)CC(C)(OC(C)=O)C(OC(=O)c3ccccc3)C2C1OC(C)=O (centres unmarked) [Compound 1, Euphjatrophane H] | relatively high BBB permeability; also recorded: ability to penetrate the blood–brain barrier (BBB) | CNS ++ (++ is logPe > −5.0) | most promising activity; also recorded: significant activity on autophagic flux |
| CC(C)NCC(O)COc1cccc2ccccc12 (centres unmarked) [Propranolol, propranolol, reference compound] | – | CNS ++ (++ is logPe > −5.0) | – |
